From US10604535B2, “Compounds, compositions and methods” (Denali Therapeutics Inc., priority 2016, dated 2020) come the findings set out here.

In this test the test system is FADD-deficient Jurkat cells. The test is described as follows: Cellular necroptosis assay (human TNFα-induced necrosis, CellTiter-Glo). The format is cell-based. The note with it: Homo sapiens, Jurkat, 48 h, TNFα 10 ng/mL, read-out: Cell IC50.
In the case of `O=C(N[C@H]1CCc2ccccc2-n2cnnc21)c1nnc(Cc2ccccc2)[nH]1` [Example 69A, (S)-5-benzyl-N-(5,6-dihydro-4H-benzo[f][1,2,4]triazolo[4,3-a]azepin-4-yl)-4H-1,2,4-triazole-3-carboxamide], the IC50 was in the range of 0.0001 to 1 µM.
For `CN1C(=O)[C@@H](NC(=O)c2cc(Cc3ccccc3)[nH]n2)CC2(CC2)c2ccccc21` [Example 59, 5-benzyl-N-[(3S)-1-methyl-2-oxo-1,2,3,4-tetrahydrospiro[1-benzazepine-5,1-cyclopropane]-3-yl]-1H-pyrazole-3-carboxamide] the value was 0.0001 to 1 µM; for `[2H]C([2H])([2H])N1C(=O)[C@@H](NC(=O)c2nnc(C3(c4ccccc4)CC3)o2)COc2cccnc21` [Example 173, (S)—N-(5-trideuteriomethyl-4-oxo-2,3,4,5-tetrahydropyrido[3,2-b][1,4]oxazepin-3-yl)-5-(1-phenylcyclopropyl)-1,3,4-oxadiazole-2-carboxamide], 0.0001 to 1 µM; for `CN1C(=O)C(NC(=O)c2cc(Cc3ccccc3)on2)[C@@H]2C[C@@H]2c2ccccc21` (stereo in doubt) [Example 7B, 5-benzyl-N-((2S)-4-methyl-3-oxo-1,1a,2,3,4,8b-hexahydrobenzo[b]cyclopropa[d]azepin-2-yl)isoxazole-3-carboxamide], 1 to 10 µM.
Then `CN1C(=O)[C@@H](NC(=O)c2nnc(Cc3ccc(F)cc3)o2)[C@H]2C[C@H]2c2nccnc21` [Example 223, 5-(4-fluorobenzyl)-N-((7S,7aS,8aR)-5-methyl-6-oxo-5,6,7,7a,8,8a-hexahydrocyclopropa[d]pyrazino[2,3-b]azepin-7-yl)-1,3,4-oxadiazole-2-carboxamide], with 0.0001 to 1 µM; and `C[C@H]1Oc2cccnc2N(C)C(=O)[C@H]1NC(=O)c1noc(Cc2ccccc2)n1` [Example 222, 5-benzyl-N-((2R,3S)-2,5-dimethyl-4-oxo-2,3,4,5-tetrahydropyrido[3,2-b][1,4]oxazepin-3-yl)-1,2,4-oxadiazole-3-carboxamide], with 0.0001 to 1 µM.
For `CN1C(=O)[C@@H](NC(=O)c2cc(Cc3ccccc3)on2)[C@H]2C[C@H]2c2cccnc21` [Example 81A, 5-benzyl-N-((1aS,2S,8bR)-4-methyl-3-oxo-1,1a,2,3,4,8b-hexahydrocyclopropa[d]pyrido[2,3-b]azepin-2-yl)isoxazole-3-carboxamide], the IC50 is 0.0001 to 1 µM.
For `CN1C(=O)[C@@H](NC(=O)c2ncc(Cc3cccc(C#N)c3)s2)CCc2cccnc21` [Example 219, (S)-5-(3-cyanobenzyl)-N-(9-methyl-8-oxo-6,7,8,9-tetrahydro-5H-pyrido[2,3-b]azepin-7-yl)thiazole-2-carboxamide] the value was 0.0001 to 1 µM; for `CN1C(=O)[C@@H](NC(=O)c2nn(Cc3ccc(F)cn3)cc2F)COc2ccccc21` [Example 214, (S)-4-fluoro-1-((5-fluoropyridin-2-yl)methyl)-N-(5-methyl-4-oxo-2,3,4,5-tetrahydrobenzo[b][1,4]oxazepin-3-yl)-1H-pyrazole-3-carboxamide], 0.0001 to 1 µM.
Turning to `CN1C(=O)C(NC(=O)c2cc(Cc3ccccc3)on2)CC(F)c2ccccc21` (stereo not drawn) [Example 2, 5-benzyl-N-(5-fluoro-1-methyl-2-oxo-2,3,4,5-tetrahydro-1H-benzo[b]azepin-3-yl)isoxazole-3-carboxamide], the IC50 lay within 0.0001 to 1 µM.
With `CN1C(=O)[C@@H](NC(=O)c2cc(Cc3ccccc3)[nH]n2)[C@H]2C[C@H]2c2ccccc21` [Example 60A, 5-benzyl-N-((1aS,2S,8bR)-4-methyl-3-oxo-1,1a,2,3,4,8b-hexahydrobenzo[b]cyclopropa[d]azepin-2-yl)-1H-pyrazole-3-carboxamide], the IC50 was in the range of 0.0001 to 1 µM.
For `CN1C(=O)[C@@H](NC(=O)c2nnc(Cc3ccccc3)[nH]2)[C@H]2C[C@H]2c2cc(C#N)cnc21` [Example 218, 5-benzyl-N-((1aS,2S,8bR)-7-cyano-4-methyl-3-oxo-1,1a,2,3,4,8b-hexahydrocyclopropa[d]pyrido[2,3-b]azepin-2-yl)-4H-1,2,4-triazole-3-carboxamide] the value was 0.0001 to 1 µM.
